Data reported in patent US20060020021A1, “Use of compounds derived from 2,3-dehydronaringenin for the treatment of inflammatory processes and pharmaceutical composition containing said derivatives” (FURFURAL ESPANOL, S.A., priority 2004, published 2006).

Legend:
[1] = system: paw edema in mice induced by carragenin; test: Test of paw edema in mice induced by carragenin (paw volume); format: in vivo, male Swiss albino mice; conditions: 70 mg/kg intraperitoneally 1 h before intradermal carragenin; significant at 1 h (p<0.025), 5 h (p<0.005), 24 h (p<0.0005)
Experimental: The anti-inflammatory capacity of the product of Formula (I), wherein R is a potassium cation, was tested: [drawing 3] in male Swiss albino mice of 8 to 10 weeks of age (38-44 g), from the Servicio de Animales de Laboratorio (Laboratory Animals Department) of the University of Murcia. The animals were maintained under standard conditions (temperature of 22±2° C., humidity 60±4% and light/dark cycle of 12 hours) with food and drink ad libitum. The animals were anesthetized with ether in the moment of inducing inflammation and during the measurements of the volume of the paw. Test of Paw Edema in Mice Induced by Carragenin
The inflammation was caused by intradermal injection of 0.05 ml of 1% Lambda Carrageenan (Sigma-Aldrich, Madrid, Spain) in saline solution in the plantar pad of the right hind paw. The measurement of the edema was carried out with a digital calibrator (Proinsa, Vitoria, Spain), measuring the 3 largest diameters of the paw for the volume calculation. The measurements were carried out in triplicate. The volume of the paw was measured immediately before (0 hours) and at 1, 5 and 24 hours after causing inflammation. The compound of Formula (I) was dissolved in sterile saline solution and intraperitoneally administered (70 mg/kg) 1 h before causing inflammation. […] Groups of 10 animals were used. […]

[2] = system: paw edema in mice induced by carragenin; test: Microscopic study and assessment of the injected plantar pad (edema, inflammatory infiltrate, degree 0-3); format: in vivo, male Swiss albino mice; conditions: treated group, 24 hours post-inoculation, 70 mg/kg i.p.
Experimental: The plantar pad area injected was extirpated at 24 hours post-inoculation; fixed in 10% buffered neutral formaldehyde, included in paraffin by the standard method, sectioned at 3 μm and stained with hematoxilin-eosin for its optical study which was carried out by two observers. The presence of edema and polynuclear neutrophils and monocytes was measured, being assessed as 0 (absence), 1 (slight), 2 (moderate) and 3 (intense) (FIGS. 3 to 6b).

O=c1cc(-c2ccc(O)cc2)oc2cc(O)cc(O)c12 [2,3-DHNA, 2,3-dehydronaringenin]
Increases in the volume of inoculated paw, treated group vs control group [1]: lower in the treated group than in the control group
samples with moderate inflammation (degree 2) [2]: 13.3%
samples with neither edema nor inflammatory infiltrate (degree 0) [2]: 60%
samples with slight inflammation (degree 1) [2]: 26.65%
